Measured values reported in ChEMBL document CHEMBL1201862, “PubChem BioAssay data set” (2004).
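Exposure lasted 48 hours, with cells grown in 96-well plates and compounds tested at five concentrations. Here, GI50 denotes the concentration required for 50% inhibition of growth.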 Activity calls are given as the source filed them. Rule as the data show it: active = GI50 up to about 1.1 µM and inactive = higher.

Tests used:
Test in all cases: DTP human tumour cell line panel, 48 h
DMS-114 = test system: DMS-114
HCC 2998 = test system: HCC 2998
TK-10 = test system: TK-10
SNB-75 = test system: SNB-75
CAKI-1 = test system: CAKI-1
SF-539 = test system: SF-539
SF-295 = test system: SF-295
SK-OV-3 = test system: SK-OV-3
DMS-273 = test system: DMS-273
OVCAR-4 = test system: OVCAR-4
SK-MEL-2 = test system: SK-MEL-2
COLO 205 = test system: COLO 205
MOLT-4 = test system: MOLT-4
NCI-H522 = test system: NCI-H522
K562 = test system: K562
HCT-116 = test system: HCT-116
SNB-19 = test system: SNB-19
HL-60 = test system: HL-60

Cc1cc(N(CCC#N)CCC#N)ccc1/N=N/c1ccc(C(=O)O)cc1
GI50 (DMS-114): > 100 µM (inactive)
GI50 (HCC 2998): > 100 µM (inactive)
GI50 (TK-10): > 100 µM (inactive)
GI50 (SNB-75): 36.7 µM (inactive)
GI50 (CAKI-1): > 100 µM (inactive)
GI50 (SF-539): > 100 µM (inactive)
GI50 (SF-295): > 100 µM (inactive)
GI50 (SK-OV-3): > 100 µM (inactive)
GI50 (DMS-273): > 100 µM (inactive)
GI50 (OVCAR-4): > 100 µM (inactive)
GI50 (SK-MEL-2): > 100 µM (inactive)
GI50 (COLO 205): > 100 µM (inactive)
GI50 (MOLT-4): > 100 µM (inactive)
GI50 (NCI-H522): > 100 µM (inactive)

CC(=O)OCCc1cccnc1/C=N/O
GI50 (DMS-114): > 100 µM (inactive)
GI50 (HCC 2998): > 100 µM (inactive)
GI50 (TK-10): > 100 µM (inactive)
GI50 (SNB-75): > 100 µM (inactive)
GI50 (CAKI-1): > 100 µM (inactive)
GI50 (SF-539): > 100 µM (inactive)
GI50 (SF-295): > 100 µM (inactive)
GI50 (SK-OV-3): > 100 µM (inactive)
GI50 (DMS-273): > 100 µM (inactive)
GI50 (K562): > 100 µM (inactive)
GI50 (OVCAR-4): > 100 µM (inactive)
GI50 (SK-MEL-2): > 100 µM (inactive)
GI50 (COLO 205): > 100 µM (inactive)
GI50 (HCT-116): > 100 µM (inactive)
GI50 (MOLT-4): > 100 µM (inactive)
GI50 (SNB-19): > 100 µM (inactive)
GI50 (NCI-H522): > 100 µM (inactive)
GI50 (HL-60): > 100 µM (inactive)

C=CSCCC(N)C(=O)O (stereo not given)
GI50 (DMS-114): > 100 µM (inactive)
GI50 (HCC 2998): > 100 µM (inactive)
GI50 (TK-10): > 100 µM (inactive)
GI50 (SNB-75): > 100 µM (inactive)
GI50 (CAKI-1): > 100 µM (inactive)
GI50 (SF-539): > 100 µM (inactive)
GI50 (SF-295): > 100 µM (inactive)
GI50 (DMS-273): > 100 µM (inactive)
GI50 (K562): > 100 µM (inactive)
GI50 (OVCAR-4): > 100 µM (inactive)
GI50 (COLO 205): > 100 µM (inactive)
GI50 (HCT-116): > 100 µM (inactive)
GI50 (MOLT-4): > 100 µM (inactive)
GI50 (SNB-19): > 100 µM (inactive)
GI50 (NCI-H522): > 100 µM (inactive)
GI50 (HL-60): > 100 µM (inactive)

CC1=CC(=O)C(=O)C2=C1OC1(C2)C(C)CCC2C3(C)CCC(O)C(C)(C)C3CCC21C (stereo not given)
GI50 (DMS-114): 14.9 µM (inactive)
GI50 (HCC 2998): 19 µM (inactive)
GI50 (TK-10): 18.8 µM (inactive)
GI50 (SNB-75): 48.4 µM (inactive)
GI50 (CAKI-1): 17.5 µM (inactive)
GI50 (SF-539): > 100 µM (inactive)
GI50 (SF-295): 15.7 µM (inactive)
GI50 (SK-OV-3): 29 µM (inactive)
GI50 (DMS-273): 24.9 µM (inactive)
GI50 (K562): 17 µM (inactive)
GI50 (OVCAR-4): 17.2 µM (inactive)
GI50 (COLO 205): 16.3 µM (inactive)
GI50 (HCT-116): 15.3 µM (inactive)
GI50 (MOLT-4): 17.1 µM (inactive)
GI50 (SNB-19): 16.8 µM (inactive)
GI50 (NCI-H522): 15.2 µM (inactive)
GI50 (HL-60): 2.22 µM (inactive)

COC(=O)[C@@]12OC[C@]34C([C@@H](O)C1O)[C@@]1(C)CC(=O)C(O)=C(C)C1C[C@H]3OC(=O)[C@H](OC(=O)CC(C)C(F)(F)F)[C@H]42 (stereo not given in full)
GI50 (DMS-114): 0.00948 µM (active)
GI50 (HCC 2998): 0.0105 µM (active)
GI50 (TK-10): 0.0662 µM (active)
GI50 (SNB-75): 0.0445 µM (active)
GI50 (CAKI-1): 0.056 µM (active)
GI50 (SF-539): 0.0105 µM (active)
GI50 (SF-295): 0.0445 µM (active)
GI50 (SK-OV-3): 0.0514 µM (active)
GI50 (DMS-273): 0.00693 µM (active)
GI50 (K562): 0.0157 µM (active)
GI50 (OVCAR-4): 0.0676 µM (active)
GI50 (SK-MEL-2): 0.0771 µM (active)
GI50 (COLO 205): 0.101 µM (active)
GI50 (HCT-116): 0.0101 µM (active)
GI50 (MOLT-4): 0.0047 µM (active)
GI50 (SNB-19): 0.00802 µM (active)
GI50 (NCI-H522): 0.00891 µM (active)
GI50 (HL-60): 0.00375 µM (active)

C/C(=C\CC[C@]1(C)OC(C)(C)OC1CC/C(C)=C/CO[Si](c1ccccc1)(c1ccccc1)C(C)(C)C)CC/C=C/CO[Si](C)(C)C(C)(C)C (stereo not given in full)
GI50 (DMS-114): > 100 µM (inactive)
GI50 (HCC 2998): > 100 µM (inactive)
GI50 (TK-10): > 100 µM (inactive)
GI50 (SNB-75): > 100 µM (inactive)
GI50 (CAKI-1): > 100 µM (inactive)
GI50 (SF-539): > 100 µM (inactive)
GI50 (SF-295): > 100 µM (inactive)
GI50 (SK-OV-3): > 100 µM (inactive)
GI50 (DMS-273): > 100 µM (inactive)
GI50 (K562): > 100 µM (inactive)
GI50 (OVCAR-4): > 100 µM (inactive)
GI50 (SK-MEL-2): > 100 µM (inactive)
GI50 (HCT-116): > 100 µM (inactive)
GI50 (MOLT-4): > 100 µM (inactive)
GI50 (SNB-19): > 100 µM (inactive)
GI50 (NCI-H522): > 100 µM (inactive)
GI50 (HL-60): > 100 µM (inactive)

O=CN/C=C/c1ccc(O)c(O)c1
GI50 (DMS-114): > 100 µM (inactive)
GI50 (HCC 2998): > 100 µM (inactive)
GI50 (TK-10): > 100 µM (inactive)
GI50 (SNB-75): 59.8 µM (inactive)
GI50 (CAKI-1): > 100 µM (inactive)
GI50 (SF-539): > 100 µM (inactive)
GI50 (SF-295): > 100 µM (inactive)
GI50 (SK-OV-3): > 100 µM (inactive)
GI50 (DMS-273): > 100 µM (inactive)
GI50 (K562): > 100 µM (inactive)
GI50 (OVCAR-4): > 100 µM (inactive)
GI50 (SK-MEL-2): > 100 µM (inactive)
GI50 (COLO 205): > 100 µM (inactive)
GI50 (HCT-116): > 100 µM (inactive)
GI50 (MOLT-4): > 100 µM (inactive)
GI50 (SNB-19): > 100 µM (inactive)
GI50 (NCI-H522): 52.1 µM (inactive)
GI50 (HL-60): 55 µM (inactive)

O=c1cc(-c2ccc(O)cc2)oc2cc(O)cc(O)c12 [APIGENIN]
GI50 (DMS-114): 32.3 µM (inactive)
GI50 (HCC 2998): 23.9 µM (inactive)
GI50 (TK-10): 41.2 µM (inactive)
GI50 (SNB-75): 21.6 µM (inactive)
GI50 (SF-539): > 10 µM (inactive)
GI50 (SF-295): 27.2 µM (inactive)
GI50 (SK-OV-3): 34.9 µM (inactive)
GI50 (DMS-273): 18.6 µM (inactive)
GI50 (K562): 32.7 µM (inactive)
GI50 (OVCAR-4): 32.2 µM (inactive)
GI50 (SK-MEL-2): 29.9 µM (inactive)
GI50 (COLO 205): 38.9 µM (inactive)
GI50 (HCT-116): 24.2 µM (inactive)
GI50 (MOLT-4): 23 µM (inactive)
GI50 (SNB-19): 29.7 µM (inactive)
GI50 (NCI-H522): 15.8 µM (inactive)
GI50 (HL-60): 29.7 µM (inactive)
